According to patent publication US20230303549A1, “SUBSTITUTED HETEROARYLOXYPYRIDINES, THE SALTS THEREOF AND THEIR USE AS HERBICIDAL AGENTS” (Bayer Aktiengesellschaft, priority 2020, published 2023):

Legend:
Format in all cases: in vivo
[1] = system: Alopecurus myosuroides (ALOMY); assay: Pre-emergence herbicide efficacy at 80 g/ha, greenhouse pot test; conditions: visual scoring vs untreated control after about 3 weeks
In short: (§1)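 Seeds were sown in pots and covered with soil, then the compound (WP or EC formulation) was sprayed onto the soil surface as an aqueous suspension or emulsion with 0.5% additive. Pots were kept in a greenhouse, and after about 3 weeks activity was scored visually versus untreated controls (100% = plants dead, 0% = like control).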

[2] = system: Amaranthus retroflexus (AMARE); assay: as above; conditions: visual scoring vs untreated control after about 3 weeks
In short: as §1

[3] = system: Echinochloa crus-galli (ECHCG); assay: as above; conditions: visual scoring vs untreated control after about 3 weeks
In short: as §1

Viola tricolor (VIOTR) [4] = assay: as above; conditions: visual scoring vs untreated control after about 3 weeks
In short: as §1

[5] = system: Polygonum convolvulus (POLCO); assay: as above; conditions: visual scoring vs untreated control after about 3 weeks
In short: as §1

[6] = system: Abutilon theophrasti (ABUTH); assay: as above; conditions: visual scoring vs untreated control after about 3 weeks
In short: as §1

[7] = system: Matricaria inodora (MATIN); assay: as above; conditions: visual scoring vs untreated control after about 3 weeks
In short: as §1

Ipomoea purpurea (PHBPU) = assay: as above; conditions: visual scoring vs untreated control after about 3 weeks
In short: as §1

Setaria viridis (SETVI) [8] = assay: as above; conditions: visual scoring vs untreated control after about 3 weeks
In short: as §1

[9] = system: Amaranthus retroflexus (AMARE); assay: Post-emergence herbicidal efficacy at 320 g/ha, greenhouse pot test; conditions: visual rating vs untreated control after about 3 weeks
In short: (§2)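 Greenhouse pots, sandy loam; treated at one-leaf stage (2–3 wk post-sowing). WP/EC in water + 0.5% additive, 600 L/ha onto green parts. Visual % rating at ~3 wk vs untreated (100% = dead, 0% = as control).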

[10] = system: Abutilon theophrasti (ABUTH); assay: as above; conditions: visual rating vs untreated control after about 3 weeks
In short: as §2

Stellaria media (STEME) [11] = assay: as above; conditions: visual rating vs untreated control after about 3 weeks
In short: as §2

Veronica persica (VERPE) [12] = assay: as above; conditions: 320 g/ha, visual rating vs untreated control after about 3 weeks
In short: as §2

Poa annua (POAAN) [13] = assay: as above; conditions: visual rating vs untreated control after about 3 weeks
In short: as §2

[14] = system: Amaranthus retroflexus (AMARE); assay: Post-emergence herbicidal efficacy at 80 g/ha, greenhouse pot test; conditions: visual rating vs untreated control after about 3 weeks
In short: (§3)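 Sown in sandy loam, treated 2–3 weeks after sowing at one-leaf stage with WP or EC formulations sprayed post-emergence in water (600 l/ha) plus 0.5% additive. Kept in greenhouse ~3 weeks, then activity scored visually vs untreated controls (100% = plants dead, 0% = like control).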

[15] = system: Polygonum convolvulus (POLCO); assay: as above; conditions: visual rating vs untreated control after about 3 weeks
In short: as §3

Setaria viridis (SETVI) [16] = assay: as above; conditions: visual rating vs untreated control after about 3 weeks
In short: as §3

[17] = system: Amaranthus retroflexus (AMARE); assay: Pre-emergence herbicide efficacy at 320 g/ha, greenhouse pot test; conditions: visual scoring vs untreated control after about 3 weeks
In short: (§4)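 Pre-emergence, greenhouse: sandy loam pots, seeds covered with soil; compound as WP/EC in water + 0.5% additive, 600 L/ha spray volume onto covering soil. Readout: visual % effect at ~3 wk vs untreated (100% = dead, 0% = as control).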

[18] = system: Echinochloa crus-galli (ECHCG); assay: as above; conditions: visual scoring vs untreated control after about 3 weeks
In short: as §4

[19] = system: Abutilon theophrasti (ABUTH); assay: as above; conditions: visual scoring vs untreated control after about 3 weeks
In short: as §4

Stellaria media (STEME) [20] = assay: as above; conditions: visual scoring vs untreated control after about 3 weeks
In short: as §4

Veronica persica (VERPE) [21] = assay: as above; conditions: visual scoring vs untreated control after about 3 weeks
In short: as §4

[22] = system: Matricaria inodora (MATIN); assay: as above; conditions: visual scoring vs untreated control after about 3 weeks
In short: as §4

Bassia scoparia (KCHSC) [23] = assay: as above; conditions: dosage 1280 g/ha in Table C6, visual scoring after about 3 weeks
In short: as §4

Setaria viridis (SETVI) [24] = assay: as above; conditions: visual scoring vs untreated control after about 3 weeks
In short: as §4

Lolium rigidum (LOLRI) = assay: as above; conditions: visual scoring vs untreated control after about 3 weeks
In short: as §4

Poa annua (POAAN) [25] = assay: as above; conditions: visual scoring vs untreated control after about 3 weeks
In short: as §4

Veronica persica (VERPE) [26] = assay: Pre-emergence herbicide efficacy at 80 g/ha, greenhouse pot test; conditions: visual scoring vs untreated control after about 3 weeks
In short: as §1

Bassia scoparia (KCHSC) [27] = assay: Post-emergence herbicidal efficacy at 320 g/ha, greenhouse pot test; conditions: visual rating vs untreated control after about 3 weeks
In short: as §2

[28] = system: Alopecurus myosuroides (ALOMY); assay: Pre-emergence herbicide efficacy at 320 g/ha, greenhouse pot test; conditions: visual scoring vs untreated control after about 3 weeks
In short: as §4

[29] = system: Alopecurus myosuroides (ALOMY); assay: Post-emergence herbicidal efficacy at 320 g/ha, greenhouse pot test; conditions: visual rating vs untreated control after about 3 weeks
In short: as §2

[30] = system: Echinochloa crus-galli (ECHCG); assay: as above; conditions: visual rating vs untreated control after about 3 weeks
In short: as §2

Viola tricolor (VIOTR) [31] = assay: Post-emergence herbicidal efficacy at 80 g/ha, greenhouse pot test; conditions: visual rating vs untreated control after about 3 weeks
In short: as §3

[32] = system: Alopecurus myosuroides (ALOMY); assay: as above; conditions: visual rating vs untreated control after about 3 weeks
In short: as §3

[33] = system: Digitaria sanguinalis (DIGSA); assay: Pre-emergence herbicide efficacy at 320 g/ha, greenhouse pot test; conditions: visual scoring vs untreated control after about 3 weeks
In short: as §4

Row | SMILES | Pre-emergence efficacy against Amaranthus retroflexus (AMARE) [2] [%] | Pre-emergence efficacy against Viola tricolor (VIOTR) (Viola tricolor (VIOTR) [4]) [%] | Pre-emergence efficacy against Polygonum convolvulus (POLCO) [5] [%] | Pre-emergence efficacy against Abutilon theophrasti (ABUTH) [6] [%] | Pre-emergence efficacy against Matricaria inodora (MATIN) [7] [%] | Pre-emergence efficacy against Setaria viridis (SETVI) (Setaria viridis (SETVI) [8]) [%] | Post-emergence efficacy against Amaranthus retroflexus (AMARE) [9] [%] | Post-emergence efficacy against Abutilon theophrasti (ABUTH) [10] [%] | Post-emergence action against Stellaria media (STEME) (Stellaria media (STEME) [11]) [%] | Post-emergence efficacy against Veronica persica (VERPE) (Veronica persica (VERPE) [12]) [%] | Post-emergence efficacy against Poa annua (POAAN) (Poa annua (POAAN) [13]) [%] | Post-emergence efficacy against Amaranthus retroflexus (AMARE) [14] [%] | Pre-emergence efficacy against Amaranthus retroflexus (AMARE) [17] [%] | Pre-emergence efficacy against Echinochloa crus-galli (ECHCG) [18] [%] | Pre-emergence efficacy against Abutilon theophrasti (ABUTH) [19] [%] | Pre-emergence efficacy against Stellaria media (STEME) (Stellaria media (STEME) [20]) [%] | Pre-emergence efficacy against Veronica persica (VERPE) (Veronica persica (VERPE) [21]) [%] | Pre-emergence efficacy against Matricaria inodora (MATIN) [22] [%] | Pre-emergence efficacy against Setaria viridis (SETVI) (Setaria viridis (SETVI) [24]) [%] | Pre-emergence efficacy against Poa annua (POAAN) (Poa annua (POAAN) [25]) [%] | further results
1 | Cc1cc(C)c(-n2cc(I)cn2)c(Oc2ncc(F)cn2)n1 [Example I-294] | 100 | 100 | 90 | 90 | 100 | 100 | 100 | 90 | 100 | 100 | 90 | 80 | 100 | 100 | 100 | 100 | 100 | 100 | 100 | 100 | Pre-emergence efficacy against Alopecurus myosuroides (ALOMY) [1]: 90%; Pre-emergence efficacy against Echinochloa crus-galli (ECHCG) [3]: 90%; Pre-emergence efficacy against Ipomoea purpurea (PHBPU) (Ipomoea purpurea (PHBPU)): 100%; Post-emergence efficacy against Polygonum convolvulus (POLCO) [15]: 80%; Post-emergence efficacy against Setaria viridis (SETVI) (Setaria viridis (SETVI) [16]): 90%; Pre-emergence efficacy against Bassia scoparia (KCHSC) (Bassia scoparia (KCHSC) [23]): 100%; Pre-emergence efficacy against Lolium rigidum (LOLRI) (Lolium rigidum (LOLRI)): 100%
2 | Cc1cc(C)c(-c2cc(C(F)F)no2)c(Oc2ncc(C(F)(F)F)cn2)n1 [Example I-45] | 100 | 90 | 80 | 90 | – | 90 | 100 | 90 | 100 | 100 | 100 | 80 | 100 | 100 | 100 | 100 | 100 | 100 | 100 | 100 | Pre-emergence efficacy against Echinochloa crus-galli (ECHCG) [3]: 80%; Pre-emergence efficacy against Veronica persica (VERPE) (Veronica persica (VERPE) [26]): 80%; Post-emergence efficacy against Bassia scoparia (KCHSC) (Bassia scoparia (KCHSC) [27]): 90%; Post-emergence efficacy against Setaria viridis (SETVI) (Setaria viridis (SETVI) [16]): 80%; Pre-emergence efficacy against Alopecurus myosuroides (ALOMY) [28]: 100%; Pre-emergence efficacy against Bassia scoparia (KCHSC) (Bassia scoparia (KCHSC) [23]): 100%
3 | Cc1cc(C)c(-n2cc(Br)cn2)c(Oc2ncc(F)cn2)n1 [Example I-277] | 100 | 100 | 100 | 90 | 100 | 100 | 100 | 90 | 90 | 90 | 90 | 80 | 100 | 100 | 100 | 100 | 100 | 90 | 100 | 100 | Pre-emergence efficacy against Alopecurus myosuroides (ALOMY) [1]: 80%; Pre-emergence efficacy against Echinochloa crus-galli (ECHCG) [3]: 100%; Pre-emergence efficacy against Veronica persica (VERPE) (Veronica persica (VERPE) [26]): 80%; Pre-emergence efficacy against Ipomoea purpurea (PHBPU) (Ipomoea purpurea (PHBPU)): 100%; Post-emergence efficacy against Bassia scoparia (KCHSC) (Bassia scoparia (KCHSC) [27]): 100%; Post-emergence efficacy against Setaria viridis (SETVI) (Setaria viridis (SETVI) [16]): 80%; Pre-emergence efficacy against Bassia scoparia (KCHSC) (Bassia scoparia (KCHSC) [23]): 100%
4 | Cc1cc(C)c(-c2cc(C(F)F)no2)c(Oc2ccc(Cl)cn2)n1 [Example I-43] | 100 | 80 | – | – | 90 | 90 | 100 | 90 | 100 | 100 | 90 | – | 100 | 90 | 100 | 100 | 100 | 90 | 100 | 100 | Pre-emergence efficacy against Veronica persica (VERPE) (Veronica persica (VERPE) [26]): 90%; Post-emergence efficacy against Alopecurus myosuroides (ALOMY) [29]: 90%; Post-emergence efficacy against Echinochloa crus-galli (ECHCG) [30]: 90%; Post-emergence efficacy against Viola tricolor (VIOTR) (Viola tricolor (VIOTR) [31]): 80%; Pre-emergence efficacy against Bassia scoparia (KCHSC) (Bassia scoparia (KCHSC) [23]): 100%
5 | Cc1cc(C)c(-c2cc(C(F)(F)F)on2)c(Oc2ncc(Cl)cn2)n1 [Example I-7] | 100 | 100 | 90 | 100 | 90 | 100 | 90 | – | 100 | 100 | – | 80 | 100 | 100 | 100 | 100 | 100 | 100 | 100 | 100 | Pre-emergence efficacy against Alopecurus myosuroides (ALOMY) [1]: 100%; Pre-emergence efficacy against Veronica persica (VERPE) (Veronica persica (VERPE) [26]): 90%; Post-emergence efficacy against Alopecurus myosuroides (ALOMY) [29]: 90%; Post-emergence efficacy against Echinochloa crus-galli (ECHCG) [30]: 90%; Post-emergence efficacy against Alopecurus myosuroides (ALOMY) [32]: 90%; Post-emergence efficacy against Viola tricolor (VIOTR) (Viola tricolor (VIOTR) [31]): 90%; Pre-emergence efficacy against Alopecurus myosuroides (ALOMY) [28]: 90%; Pre-emergence efficacy against Digitaria sanguinalis (DIGSA) [33]: 100%
